Patent US20140128472A1, “TREATMENT AND PREVENTION OF DISEASES RELATED TO OXIDATIVE STRESS” (UNIVERSITY OF PÉCS, priority 2011, published 2014)
“Also recorded” adds a separate entry of the source.

Legend:
[1] = tested on: thoracic and abdominal aorta, renal and femoral arteries; test: Insulin-induced relaxation of isolated arterial segments after oral tyrosine isomer supplementation of rats; format: in vivo, Sprague-Dawley rats; details: for Insulin-induced relaxation, abdominal aorta, femoral (and renal) arteries / Insulin-induced relaxation, thoracic aorta: 1.76 mg/die per os; for Insulin-induced relaxation, abdominal aorta, femoral (and renal) arteries: compared to control; for Insulin-induced relaxation, thoracic aorta: compared to control/other groups; for Chronic effects on insulin-induced vasorelaxation after washout: 8th week, 4 weeks washout, all segments
Procedure: The experiments were carried out with the permission of the Hungarian Local Animal Experiment Committee. Shortly after weaning male CFY rats (a strain of the Sprague-Dawley rat) were placed in individual cages and held on regular diet. After two hours of fasting animals (4-5 week-old, 80-140 g) were loaded with 1.76 mg/die para-, meta- or ortho-tyrosine (p-, m-, o-tyr; Sigma-Aldrich, Inc., St. Louis, Mo. 63178, USA) dissolved in saline or vehicle (saline only) by gavage (per os) six days of the week. After one month treatment, animals were either anaesthetized with ether and were decapitated with a guillotine or p-, m-, o-tyr and vehicle supplementation was discontinued (“washout” period) and they were sacrificed […] (FIG. 8.A). The descending thoracic and abdominal aorta, renal and femoral arteries were removed and cleaned from connective tissue (FIG. 19). Sections were immediately hydrolyzed for HPLC analysis or were used for vascular reactivity studies.
In further tyrosine isomer incorporation studies when effects of chronic oral p-Tyr and o-Tyr supplementation of rats on the o-Tyr level and insulin-induced relaxation of isolated arterial segments were studied, 18 Male Sprague-Dawley rats (5-6 week-old) were used. Rats were orally supplied with either 1.76 mg/die of p-Tyr or o-Tyr or vehicle during six days per week for four weeks. […] At the end of four-week treatment, HPLC and vasomotor studies were performed. In another group of rats, p-Tyr/o-Tyr supplementation was discontinued for four weeks (“washout” period), after which they were sacrificed for HPLC and vasomotor studies.
The modified method of Fésüs et al. (Fésüs2007) was used. The distal parts of the vessels were dissected into 2 mm long segments in ice-cold Krebs buffer and rings were mounted on two stainless steel wires (40 μm in diameter) in a Danish Multimyograph Model 610M (DMT-USA Inc., Atlanta, Ga., USA). Vessels were bathed in Krebs buffer (containing 119 mM NaCl, 4.7 mM KCl, 1.2 mM KH2PO4, 25 mM NaHCO3, 1.2 mM Mg2SO4, 11.1 mM glucose, 1.6 mM CaCl2*2H2O, pH 7.4) and gassed with 5% CO2 and 95% O2 at 37° C. The resting tension/internal circumference relationship for each vessel was determined and then the internal circumference was set to 0.9×L100, where L100 is the internal circumference the vessel would have had in vivo when relaxed under a transmural pressure of 100 mmHg After this normalization procedure vessels were allowed to stabilize for 30 min, and then isometric tension was continuously recorded. Rings were preconstricted with 100 nM epinephrine. After reaching a stabile contraction plateau, relaxant responses to increasing doses of insulin were assessed. The rate of relaxation was expressed as percentage of the contraction evoked by epinephrine (100%). Para-, meta-, ortho-tyrosine or vehicle were added to the vessel chamber 10 minutes before the addition of epinephrine and 30 minutes before the addition of insulin.

3T3-L1 adipocytes = test: Insulin-dependent uptake of deoxy-D-glucose 2-[1 2-3H(N)] into 3T3-L1 adipocytes; format: cell-based, mouse
Procedure: Primary cultures of mouse embryo fibroblasts (3T3-L1) were purchased from ATCC (Manassas, US). Early passages of 3T3-L1 fibroblasts were cultured in Dulbecco's modified Eagle medium ((DMEM, Invitrogen, CAT number: 41966-029; Sigma Aldrich CAT number: D6046) supplemented with 10% Fetal Bovine Serum (Gibco, CAT number: 16170-078), 100 U/ml penicillin and 0.1 mg/ml streptomycin (Gibco, CAT number: 15070-063) and 398 nM p-, m-, or o-Tyr. DMEM contained 25 or 5 mM glucose (depending on the experiment), L-glutamine, and pyruvate. Cells were grown in a humidified incubator at 37° C. and 5% CO2. Differentiation medium consisted of DMEM supplemented with 10% Fetal Bovine Serum (FBS, Gibco, Csertex, Budapest, Hungary, CAT number: 10106-169) (FBS), to which a cocktail was added containing […] isobuthylmethylxanthine (Sigma Aldrich, CAT number: I 5879), 0.17 nM insulin (Sigma Aldrich, CAT number: I 9278) and 250 nM dexamethasone (Sigma Aldrich, CAT number: 861871). From Day 4 onward, cells were maintained in DMEM/10% FBS containing […] insulin with a media change every other day until experimental treatments were initiated. For all treatments, cells were incubated overnight in serum-deprived medium after 90% of the cell population reached the adipocyte phenotype.
Cells were incubated in glucose free DMEM (Gibco, Csertex, Hungary) for 30 minutes, then treated with 2, 20, 200 or 400 nmol/l insulin for 100 minutes. Simultaneously 1 μCi/ml deoxy-D-glucose 2-[1 2-3H(N)] (3.7×104 Bq/ml) (Izotóp Intézet, Hungary) was added to the plates for 100 minutes Cells were scraped into the medium and centrifuged for 5 minutes at 1000 rpm. The sediment was dissolved in 70 μl of lysis-buffer and glucose uptake was assessed by scintillation counting measuring 30 μl of the sample with a Beckman LS 5000 TD counter in counts per minute (CPM) for five minutes each, using an average activity as the outcome. Samples were frozen overnight at −70° C. and protein concentration was measured using a Hitachi spectrophotometer. Results were normalized for protein content (Kaddai2009).

[2] = cells grown 11 days on medium with the tyrosine isomer + 5 mM glucose, insulin 2, 20, 200, 400 nM

Compound | Insulin-induced relaxation, abdominal aorta, femoral (and renal) arteries ([1]; 4th week) | Insulin-induced relaxation, thoracic aorta ([1]; 4th week) | Insulin-induced relaxation, all three isolated segments compared to the p-Tyr-treated group ([1]; 4th week, thoracic and abdominal aorta, femoral artery) | Chronic effects on insulin-induced vasorelaxation after washout [1] | Insulin-induced glucose uptake at equimolar concentrations with p-Tyr (3T3-L1 adipocytes; 72-72 mg/l m-Tyr or o-Tyr and p-Tyr, insulin 400 nM) | Insulin-dependent deoxy-D-glucose uptake (3T3-L1 adipocytes; [2]) | Baseline glucose uptake (3T3-L1 adipocytes; cells grown on m-Tyr- or o-Tyr-containing medium (72 mg/l) for different time periods, no insulin) | Insulin-induced glucose uptake, time dependence (3T3-L1 adipocytes; m-Tyr or o-Tyr 72 mg/l for different time periods, insulin 400 nM, time-dependent manner) | Ability to inhibit insulin-induced glucose uptake, dependence on concentration (3T3-L1 adipocytes; m-Tyr or o-Tyr 2.25-72 mg/l with p-Tyr 72 mg/l, insulin 400 nM) | Insulin-dependent deoxy-D-glucose uptake (3T3-L1 adipocytes; cells grown 11 days on p-Tyr + high glucose (25 mM)) | Increase in glucose uptake by insulin (3T3-L1 adipocytes; cells grown on p-Tyr and normal glucose, insulin 400 nM) | Excess concentration of p-Tyr over m-Tyr or o-Tyr in the media needed to compete (3T3-L1 adipocytes; read from FIG. 3, insulin 400 nM)
N[C@@H](Cc1ccccc1O)C(=O)O [o-Tyr, Ortho-L-tyrosine] | significantly diminished response to insulin | no significant difference; also recorded: did not observe any significant further decline of response to insulin | markedly attenuated insulin-induced relaxations | completely abolished | fully inhibit insulin-induced glucose uptake; also recorded: insulin had no effect on glucose uptake at all | no insulin effect could be verified | did not show a marked change | blocked | concentration-dependent |  |  | 
N[C@@H](Cc1ccc(O)cc1)C(=O)O [p-Tyr, Para-L-tyrosine] | could not detect significant difference | increased insulin-induced relaxations only in the thoracic aorta; also recorded: increased relaxation in response to insulin; also recorded: higher vasorelaxation response to insulin; also recorded: greater vasorelaxation |  | completely abolished |  | increasing concentrations of insulin lead to an increase in deoxy-D-glucose uptake |  |  |  | insulin failed to increase glucose uptake | approx. 2 fold | 8-32 fold
